Reference: the CheMixHub viscosity set
Several values for one entry are separate records, joined by “and”; a condition that tells them apart may be missing. Identical values can stand only once.

Test: xn = mol fraction of the nth substance listed

CCCCOCC(C)O (stereo not drawn) + CCO
viscosity [mPa·s], 101.33 kPa
Details | 298.15 K | 308.15 K | 318.15 K
x1 = 0.05 | 1.229 | 1.013 | 0.846
x1 = 0.1 | 1.344 | 1.103 | 0.915
x1 = 0.15 | 1.462 | 1.193 | 0.982
x1 = 0.2 | 1.585 | 1.279 | 1.046
x1 = 0.25 | 1.705 | 1.363 | 1.108
x1 = 0.3 | 1.813 | 1.442 | 1.166
x1 = 0.35 | 1.918 | 1.516 | 1.22
x1 = 0.4 | 2.022 | 1.589 | 1.273
x1 = 0.45 | 2.12 | 1.656 | 1.321
x1 = 0.5 | 2.211 | 1.724 | 1.365
x1 = 0.55 | 2.305 | 1.779 | 1.409
x1 = 0.6 | 2.384 | 1.841 | 1.445
x1 = 0.65 | 2.469 | 1.891 | 1.49
x1 = 0.7 | 2.536 | 1.935 | 1.517
x1 = 0.7499 | 2.608 | 1.983 | 1.55
x1 = 0.7998 | 2.674 | 2.035 | 1.58
x1 = 0.85 | 2.737 | 2.067 | 1.609
x1 = 0.8998 | 2.788 | 2.099 | 1.633
x1 = 0.95 | 2.841 | 2.135 | 1.647

COC(C)=O + CCO
298.15 K, 101.33 kPa
Details | viscosity [mPa·s]
x1 = 0.1146 | 0.833
x1 = 0.2045 | 0.695
x1 = 0.3207 | 0.574
x1 = 0.4245 | 0.506
x1 = 0.5004 | 0.467
x1 = 0.6077 | 0.438
x1 = 0.7989 | 0.399
x1 = 0.8802 | 0.39

COCCOC + CCO
298.15 K, 101 kPa
Details | viscosity [mPa·s]
x1 = 0.05375 | 0.9565
x1 = 0.1133 | 0.8329
x1 = 0.1797 | 0.7369
x1 = 0.2542 | 0.663
x1 = 0.3383 | 0.5931
x1 = 0.434 | 0.5444
x1 = 0.544 | 0.4926
x1 = 0.8215 | 0.4356

COC(C)=O + CCOC(C)=O
viscosity, 101 kPa
Details | 298.15 K | 313.15 K
x1 = 0.0544 | 0.432 mPa·s | 0.372 mPa·s
x1 = 0.0916 | 0.429 mPa·s | 0.37 mPa·s
x1 = 0.2242 | 0.418 mPa·s | 0.361 mPa·s
x1 = 0.3041 | 0.412 mPa·s | 0.357 mPa·s
x1 = 0.3995 | 0.405 mPa·s | 0.351 mPa·s
x1 = 0.5024 | 0.399 mPa·s | 0.346 mPa·s
x1 = 0.5482 | 0.396 mPa·s | 0.344 mPa·s
x1 = 0.6054 | 0.392 mPa·s | 0.341 mPa·s
x1 = 0.7024 | 0.387 mPa·s | 0.337 mPa·s
x1 = 0.8025 | 0.381 mPa·s | 0.333 mPa·s
x1 = 0.9028 | 0.377 mPa·s | 0.33 mPa·s
x1 = 0.9548 | 0.376 mPa·s | 0.33 mPa·s
x2 = 0.07815 | 0.3638 mPa·s | –
x2 = 0.189 | 0.3713 mPa·s | –
x2 = 0.3264 | 0.3801 mPa·s | –
x2 = 0.4453 | 0.3876 mPa·s | –
x2 = 0.5532 | 0.3943 mPa·s | –
x2 = 0.7914 | 0.4098 mPa·s and 0.4098 mPa·s | –
x2 = 0.8752 | 0.4158 mPa·s | –

COc1ccccc1N + CCOCCO
303.15 K, 101 kPa
Details | viscosity [mPa·s]
x1 = 0.0875 | 2.2
x1 = 0.1775 | 2.547
x1 = 0.2701 | 2.908
x1 = 0.3653 | 3.268
x1 = 0.4633 | 3.603
x1 = 0.5643 | 3.917
x1 = 0.6683 | 4.18
x1 = 0.7755 | 4.436
x1 = 0.886 | 4.681

COC(C)=O + CN1CCCC1=O
viscosity [mPa·s], 101 kPa
Details | x2 = 0.0845 | x2 = 0.172 | x2 = 0.2626 | x2 = 0.3565 | x2 = 0.4539 | x2 = 0.5549 | x2 = 0.6598 | x2 = 0.7688 | x2 = 0.8821
303.15 K | 0.52 | 0.671 | 0.818 | 0.958 | 1.096 | 1.22 | 1.326 | 1.424 | 1.502
308.15 K | 0.488 | 0.619 | 0.749 | 0.873 | 0.991 | 1.102 | 1.195 | 1.284 | 1.358
313.15 K | 0.445 | 0.571 | 0.693 | 0.811 | 0.923 | 1.028 | 1.118 | 1.202 | 1.271
318.15 K | 0.412 | 0.526 | 0.638 | 0.743 | 0.846 | 0.939 | 1.022 | 1.098 | 1.163

OCCNCCO + CN1CCCC1=O
viscosity [mPa·s], 101 kPa
Details | 293.15 K | 303.15 K | 313.15 K | 323.15 K
x2 = 0.1012 | 457.2 | 211.6 | 100.2 | 38.39
x2 = 0.1941 | – | 103.8 | 43.29 | 27
x2 = 0.2002 | 222.2 | 106.2 | 60.47 | 24.87
x2 = 0.3004 | 85.35 | 47.36 | 28.26 | 17.59
x2 = 0.4003 | 53.69 | 31.19 | 19.32 | 12.45
x2 = 0.4024 | – | 31.82 | 15.04 | 10.25
x2 = 0.4998 | 27.76 | 16.74 | 10.6 | 7.513
x2 = 0.5851 | – | 16.32 | 7.42 | 6.32
x2 = 0.6003 | 16.21 | 9.543 | 5.75 | 3.961
x2 = 0.7 | 7.618 | 5.537 | 4.107 | 3.18
x2 = 0.7962 | – | 8.38 | 4.04 | 3.22
x2 = 0.7997 | 4.326 | 3.448 | 2.746 | 2.257
x2 = 0.8994 | 2.841 | 2.318 | 1.927 | 1.63

CCC(C)=O + CN(C)C=O
298.15 K, 101 kPa
Details | viscosity [mPa·s]
x2 = 0.0395 | 0.387
x2 = 0.0843 | 0.403
x2 = 0.1186 | 0.414
x2 = 0.1681 | 0.43
x2 = 0.2276 | 0.451
x2 = 0.2773 | 0.471
x2 = 0.3768 | 0.499
x2 = 0.5116 | 0.547
x2 = 0.6168 | 0.581
x2 = 0.7438 | 0.662
x2 = 0.8079 | 0.698
